Source: patent US20080096861A1, “Chemical Compounds” (SMITHKLINE BEECHAM CORPORATION, priority 2004, published 2008)
pIC50: −log10 of the molar value.

Test system: HIV-1 IIIB
Experiment: HOS HIV-1 infectivity assay
Format: cell-based
Conditions: Human immunodeficiency virus 1, IIIB; as determined by the infectivity assay; strain not stated in Table 2; read-out: Activity Level
Method: Compounds were profiled against two HIV-1 viruses, the M-tropic (CCR5 utilizing) Ba-L strain and the T-tropic (CXCR4 utilizing) IIIB strain. Both viruses were propagated in human peripheral blood lymphocytes. Compounds were tested for there ability to block infection of the HOS cell line (expressing hCXCR4/hCCR5/hCD4/pHIV-LTR-luciferase) by either HIV-1 Ba-L or HIV-1 IIIB. Compound cytotoxicity was also examined in the absence of virus addition.
HOS cells (expressing hCXCR4/hCCR5/hCD4/pHIV-LTR-luciferase) were harvested and diluted in Dulbeccos modified Eagles media supplemented with 2% FCS and non-essential amino acid to a concentration of 60,000 cells/ml. The cells were plated into 96-well plates (100 ul per well) and the plates were placed in a tissue culture incubator (37° C.; 5% CO2/95% air) for a period of 24 h.
Subsequently, 50 ul of the desired drug solution (4 times the final concentration) was added to each well and the plates were returned to the tissue culture incubator (37° C.; 5% CO2/95% air) for 1 h. Following this incubation 50 ul of diluted virus was added to each well (approximately 2 million RLU per well of virus). The plates were returned to the tissue culture incubator (37° C.; 5% CO2/95% air) and were incubated for a further 96 h.
Following this incubation the endpoint for the virally infected cultures was quantified following addition of Steady-Glo Luciferase assay system reagent (Promega, Madison, Wis.). Cell viability or non-infected cultures was measured using a CellTiter-Glo luminescent cell viability assay system (Promega, Madison, Wis.). All luminescent readouts are performed on a Topcount luminescence detector (Packard, Meridien, Conn.).

Row | pIC50 | Structure (SMILES)
1 | > 7.00 | CN(Cc1nc2ccccc2n1CC(=O)NCc1cccnc1)C1CCCc2cccnc21 (stereo not shown) [Example 29, 2-(2-{[Methyl(5,6,7,8-tetrahydro-8-quinolinyl)amino]methyl}-1H-benzimidazol-1-yl)-N-(3-pyridinylmethyl)acetamide]
2 | 6.30 to 7.00 | CN(C)/C(=N\C#N)N1CCC[C@H](Cn2c(CN(C)[C@H]3CCCc4cccnc43)nc3ccccc32)C1 [Example 92, (3R)—N′-Cyano-N,N-dimethyl-3-{[2-({methyl[(8S)-5,6,7,8-tetrahydro-8-quinolinyl]amino}methyl)-1H-benzimidazol-1-yl]methyl}-1-piperidinecarboximidamide]
3 | > 7.00 | CN(Cc1nc2ccccc2n1CCCNC(=N)N)C1CCCc2cccnc21 (stereo not shown) [Example 61, N-[3-(2-{[Methyl(5,6,7,8-tetrahydro-8-quinolinyl)amino]methyl}-1H-benzimidazol-1-yl)propyl]guanidine]
4 | > 7.00 | CN(Cc1nc2ccccc2n1C1CCNCC1)C1CCCc2cccnc21 (stereo not shown) [Example 11h, N-Methyl-N-{[1-(4-piperidinyl)-1H-benzimidazol-2-yl]methyl}-5,6,7,8-tetrahydro-8-quinolinamine]
5 | > 7.00 | CN(Cc1nc2ccccc2n1CC(C)(C)CNC(=N)N)C1CCCc2cccnc21 (stereo not shown) [Example 68, N-[2,2-Dimethyl-3-(2-{[methyl(5,6,7,8-tetrahydro-8-quinolinyl)amino]methyl}-1H-benzimidazol-1-yl)propyl]guanidine]
6 | 6.30 to 7.00 | CC(C)CN(Cc1nc2ccccc2n1C[C@H]1CCCN(C(C)C)C1)[C@H]1CCCc2cccnc21 [Example 98, (8S)—N-[(1-{[(3S)-1-(1-Methylethyl)-3-piperidinyl]methyl}-1H-benzimidazol-2-yl)methyl]-N-(2-methylpropyl)-5,6,7,8-tetrahydro-8-quinolinamine]
7 | > 7.00 | CCCN(Cc1nc2ccccc2n1C[C@H]1CCCN(C)C1)[C@H]1CCCc2cccnc21 [Example 93, (8S)—N-[(1-{[(3S)-1-Methyl-3-piperidinyl]methyl}-1H-benzimidazol-2-yl)methyl]-N-propyl-5,6,7,8-tetrahydro-8-quinolinamine]
8 | 6.30 to 7.00 | CC(C)N1CCC[C@@H]1CN1CCC[C@H](Cn2c(CN(C)[C@H]3CCCc4cccnc43)nc3ccccc32)C1 [Example 109, (8S)—N-Methyl-N-({1-[((3S)-1-{[(2R)-1-(1-methylethyl)-2-pyrrolidinyl]methyl}-3-piperidinyl)methyl]-1H-benzimidazol-2-yl}methyl)-5,6,7,8-tetrahydro-8-quinolinamine]
9 | 6.30 to 7.00 | CN(Cc1nc2ccccc2n1CCc1cccnc1)C1CCCc2cccnc21 (stereo not shown) [Example 36]
10 | 6.30 to 7.00 | CC(C)CCNCC(C)(C)Cn1c(CN(C)C2CCCc3cccnc32)nc2ccccc21 (stereo not shown) [Example 69, N-[(1-{2,2-Dimethyl-3-[(3-methylbutyl)amino]propyl}-1H-benzimidazol-2-yl)methyl]-N-methyl-5,6,7,8-tetrahydro-8-quinolinamine]
11 | 5.00 to 6.30 | CN(C)Cc1ccc(-n2c(CN(C)C3CCCc4cccnc43)nc3ccccc32)cc1 (stereo not shown) [Example 73, N-[(1-{4-[(Dimethylamino)methyl]phenyl}-1H-benzimidazol-2-yl)methyl]-N-methyl-5,6,7,8-tetrahydro-8-quinolinamine]
12 | 6.30 to 7.00 | CN(Cc1nc2ccccc2n1CCn1ccnc1)C1CCCc2cccnc21 (stereo not shown) [Example 70, N-({1-[2-(1H-Imidazol-1-yl)ethyl]-1H-benzimidazol-2-yl}methyl)-N-methyl-5,6,7,8-tetrahydro-8-quinolinamine]
13 | > 7.00 | CN(Cc1nc2ccccc2n1C[C@H]1CCCN(CCO)C1)[C@H]1CCCc2cccnc21 [Example 46, 2-((3S)-3-{[2-({Methyl[(8S)-5,6,7,8-tetrahydro-8-quinolinyl]amino}methyl)-1H-benzimidazol-1-yl]methyl}-1-piperidinyl)ethanol]
14 | > 7.00 | CN(Cc1nc2ccccc2n1CCCN)C1CCCc2cccnc21 (stereo not shown) [Example 15b, N-{[1-(3-Aminopropyl)-1H-benzimidazol-2-yl]methyl}-N-methyl-5,6,7,8-tetrahydro-8-quinolinamine]
15 | > 7.00 | CN(Cc1nc2ccccc2n1CC1CCNC1)C1CCCc2cccnc21 (stereo not shown) [Example 8c, N-Methyl-N-{[1-(3-pyrrolidinylmethyl)-1H-benzimidazol-2-yl]methyl}-5,6,7,8-tetrahydro-8-quinolinamine]
16 | > 7.00 | CC(C)N1CCC[C@@H](Cn2c(CN(C)[C@@H]3CCCc4cccnc43)nc3ccccc32)C1 [Example 79, (8R)—N-Methyl-N-[(1-{[(3R)-1-(1-methylethyl)-3-piperidinyl]methyl}-1H-benzimidazol-2-yl)methyl]-5,6,7,8-tetrahydro-8-quinolinamine]

Row | pIC50 | Structure (SMILES)
17 | 6.30 to 7.00 | CN(Cc1nc2ccccc2n1CCCN1CCOCC1)C1CCCc2cccnc21 (stereo not shown) [Example 57, N-Methyl-N-([1-[3-(4-morpholinyl)propyl]-1H-benzimidazol-2-yl]methyl)-5,6,7,8-tetrahydro-8-quinolinamine]
18 | 6.30 to 7.00 | CN1CCC[C@@H](Cn2c(CN(C)[C@@H]3CCCc4cccnc43)nc3ccccc32)C1 [Example 77, (8R)—N-Methyl-N-[(1-{[(3R)-1-methyl-3-piperidinyl]methyl}-1H-benzimidazol-2-yl)methyl]-5,6,7,8-tetrahydro-8-quinolinamine]
19 | 5.00 to 6.30 | CN(Cc1nc2ccccc2n1Cc1ccccn1)C1CCCc2cccnc21 (stereo not shown) [Example 26, N-Methyl-N-{[1-(2-pyridinylmethyl)-1H-benzimidazol-2-yl]methyl}-5,6,7,8-tetrahydro-8-quinolinamine]
20 | > 7.00 | CN(Cc1nc2ccccc2n1C[C@H]1CCCN(Cc2cccn2C)C1)[C@H]1CCCc2cccnc21 [Example 104, (8S)—N-Methyl-N-{[1-({(3S)-1-[(1-methyl-1H-pyrrol-2-yl)methyl]-3-piperidinyl}methyl)-1H-benzimidazol-2-yl]methyl}-5,6,7,8-tetrahydro-8-quinolinamine]
21 | > 7.00 | CC(C)N1CCC[C@H](Cn2c(CN(C)[C@@H]3CCCc4cccnc43)nc3ccccc32)C1 [Example 83, (8R)—N-methyl-N-[(1-{[(3S)-1-(1-methylethyl)-3-piperidinyl]methyl}-1H-benzimidazol-2-yl)methyl]-5,6,7,8-tetrahydro-8-quinolinamine]
22 | > 7.00 | CN(Cc1nc2ccccc2n1CC1CNC1)C1CCCc2cccnc21 (stereo not shown) [Example 10d, N-{[1-(3-Azetidinylmethyl)-1H-benzimidazol-2-yl]methyl}-N-methyl-5,6,7,8-tetrahydro-8-quinolinamine]
23 | > 7.00 | CC(C)CCN1CCC[C@H](Cn2c(CN(C)[C@H]3CCCc4cccnc43)nc3ccccc32)C1 [Example 84, (8S)—N-Methyl-N-[(1-{[(3S)-1-(3-methylbutyl)-3-piperidinyl]methyl}-1H-benzimidazol-2-yl)methyl]-5,6,7,8-tetrahydro-8-quinolinamine]
24 | 6.30 to 7.00 | CN(Cc1nc2ccccc2n1CCCNS(=O)(=O)c1ccccc1)C1CCCc2cccnc21 (stereo not shown) [Example 62, N-[3-(2-{[Methyl(5,6,7,8-tetrahydro-8-quinolinyl)amino]methyl}-1H-benzimidazol-1-yl)propyl]benzenesulfonamide]
25 | 6.30 to 7.00 | CN(Cc1nc2ccccc2n1CC(=O)NCc1ccccn1)C1CCCc2cccnc21 (stereo not shown) [Example 33, 2-(2-{[Methyl(5,6,7,8-tetrahydro-8-quinolinyl)amino]methyl}-1H-benzimidazol-1-yl)-N-(2-pyridinylmethyl)acetamide]
26 | > 7.00 | CC(C)N1CCC[C@@H](Cn2c(CN(C)[C@H]3CCCc4cccnc43)nc3ccccc32)C1 [Example 81, (8S)—N-Methyl-N-[(1-{[(3R)-1-(1-methylethyl)-3-piperidinyl]methyl}-1H-benzimidazol-2-yl)methyl]-5,6,7,8-tetrahydro-8-quinolinamine]
27 | 6.30 to 7.00 | CN(C)Cc1ccccc1Cn1c(CN(C)C2CCCc3cccnc32)nc2ccccc21 (stereo not shown) [Example 50, N-{[1-({2-[(Dimethylamino)methyl]phenyl}methyl)-1H-benzimidazol-2-yl]methyl}-N-methyl-5,6,7,8-tetrahydro-8-quinolinamine]
28 | 6.30 to 7.00 | CN(C)CC#CCn1c(CN(C)C2CCCc3cccnc32)nc2ccccc21 (stereo not shown) [Example 56, N-({1-[4-(Dimethylamino)-2-butyn-1-yl}-1H-benzimidazol-2-yl]methyl)-N-methyl-5,6,7,8-tetrahydro-8-quinolinamine]
29 | 6.30 to 7.00 | CN(Cc1nc2ccccc2n1CC(=O)NCc1ccncc1)C1CCCc2cccnc21 (stereo not shown) [Example 28, 2-(2-{[Methyl(5,6,7,8-tetrahydro-8-quinolinyl)amino]methyl}-1H-benzimidazol-1-yl)-N-(4-pyridinylmethyl)acetamide]
30 | 5.00 to 6.30 | NCCCCn1c(CN(CCc2ccccc2)C2CCCc3cccnc32)nc2ccccc21 (stereo not shown) [Example 53, N-{[1-(4-Aminobutyl)-1H-benzimidazol-2-yl}methyl]-N-(2-phenylethyl)-5,6,7,8-tetrahydro-8-quinolinamine]
31 | > 7.00 | CN(Cc1nc2ccccc2n1C[C@H]1CCCN(CCCO)C1)[C@H]1CCCc2cccnc21 [Example 47, 3-((3S)-3-{[2-({Methyl[(8S)-5,6,7,8-tetrahydro-8-quinolinyl]amino}methyl)-1H-benzimidazol-1-yl]methyl}1-piperidinyl)-1-propanol]
